The values below are quoted from earlier work in patent publication US20040072825A1, “2-(2-(4-((2r)-2-methyl-3-(10h-phenothiazin-10-yl)propyl)-1-piperazinyl)-ethoxy) ethanol, process for the preparation thereof, pharmaceutical compositions containing said compound and therapeutic uses thereof” (priority 2000, published 2004).

SMILES strings stand for the structures.

The data set deals with vomiting and nausea in cancerotherapy. The conditions noted are these: patients in cancerotherapy, personal interview; cited from earlier work.

As for `Cc1nccn1CC1CCc2c(c3ccccc3n2C)C1=O` (centres unmarked) [ondansetron], the “effect on nausea (in words)” value is “no clear-cut effect against the nausea” and the “effect on vomiting (in words)” value is “clearly effective in preventing vomiting”.
